From patent US20260174829A1, “METHODS OF REDUCING TYPE 2 CYTOKINE-MEDIATED INFLAMMATION USING NEUROMEDIN PEPTIDES” (Rutgers, The State University of New Jersey, priority 2018, published 2026)

Test system: Nippostrongylus brasiliensis (Nb)-infected mice
Assay: Nmb treatment (i.t.) of Nippostrongylus brasiliensis-infected mice
Type: in vivo, mouse
Procedure: FIGS. 6A-6E. […] (A), Nb-infected mice were treated with PBS or Nmb (i.t.) and ILC2s in the BAL were quantified. (B) Expression of IL-5 and IL-13 in the lungs of PBS or Nmb-treated mice was determined on day 7 post-Nb by Real-time PCR. (C) Eosinophils in the BAL were quantified and (D) worm burdens were determined on day 7 post-Nb infection. ILC2s were sort-purified from the lungs of control or baso-dep mice on day 7 post-Nb and cultured (O/N) with IL-2 and IL-7 in the presence or absence of Nmb and (E) IL-5 and IL-13 levels in culture supernatants were determined by ELISA. P values were determined by two-tailed Student's t-tests.
Methods for maintenance, recovery, infection and isolation of N. brasiliensis larvae were performed as previously described (Camberis et al., 2003, Animal model of Nippostrongylus brasiliensis and Heligmosomoides polygyrus. Current protocols in immunology/edited by John E. Coligan . . . [et al.] Chapter 19:Unit 19.12.). Mice were infected with ˜500 N. brasiliensis larvae by subcutaneous injection. For basophil depletion, WT and basophil-depleted mice were treated with 0.375 μg of diphtheria toxin i.p. every other day; mice were sacrificed 3-7 days post-N. brasiliensis infection. For neuromedin B treatment, mice were anesthetized and treated with 10 μg of neuromedin B (MP Biomedicals) dissolved in 50 μL of PBS administered via intratracheal instillation.
For BAL collection after necropsy, 5 mL of PBS were injected and aspirated from the trachea of each mouse, after collection the volume of BAL collected was recorded. Following BAL collection, lungs were collected at necropsy and single-cell suspensions for flow cytometric analysis were prepared as previously described (Jungblut et al., J Vis Exp 29:1266, 2009). Briefly, pulmonary tissue was minced and incubated in HBSS containing 2.5% of FBS, collagenase D (2 mg/mL, Roche) and DNAse I (80 U/mL, Roche) for 30 min at 37° C. Cell suspensions were filtered through a […] filter and analyzed by flow cytometry. Additionally sections of pulmonary tissue were collected for real-time PCR and histological analysis.
Cells were stained with monoclonal anti-mouse fluorescently conjugated antibodies: B220 (RA3-6B2), c-Kit (ACK2), CD3 (145-2C11), CD4 (GK1.5), CD5 (53-73), CD19 (1D3), NK1.1 (PK136), CD11b (MI/70), CD11c (N418), IgE (23G3), FcRI (MAR-1), CD49b (DX5), CD45 (30-F11), CD90 (5E10), CD127 (A7R34), F4/80 (BM8), γδTCR (eBioGL3), Siglec-F (E50-2440), LγδG (1A8), LγδC (AL-21), IL-5 (TRFK5), IL-13 (eBiol3A), Ter-119 (TER-119) from eBioscience or BD Biosciences. For intracellular staining, cells were incubated for 5 hours at 37° C. with Leukocyte Activation Cocktail, with BD GolgiPlug™ (BD Biosciences) following manufacturer's instructions. Basophils were analyzed as CD45^+CD3^−CD19^−FceR1^+CD49b^+. Eosinophils were analyzed as CD45^+CD11b^+Siglec-F^+CD11c^−. Neutrophils were analyzed as Live CD45^+CD11b^+LγδG^+. ILC2s were analyzed as CD45^+CD3^−CD19^−CD11b^−CD11c^−NK1.1^−B220^−CD5^−Ter-119^− γδ TCR^−CD90^+CD127^+IL-5^+IL-13^+. Samples were acquired on a BD Fortessa flow cytometer (BD Biosciences) and analyzed using Flowlo software (v10.0.5, Tree Star). Cell sorting was performed using a FACSAriaII (BD Bioscience).
RNA from sections of lung tissue was isolated by homogenization in TRIzol (Invitrogen) followed by phenol-chloroform extraction and isopropanol precipitation. cDNA was generated per standard protocol with Superscript reverse transcriptase (Invitrogen) and used as input for real-time PCR. Real-time data were analyzed using the ΔΔCT method using SYBR Green chemistry (Applied Biosystems) with β-actin serving as the endogenous housekeeping gene. All reactions were run on an ABI 7500 Fast Real-Time PCR System (Applied Biosystems). Samples were normalized to naïve controls.

[1] = Nmb i.t. vs PBS, day 7, Real-time PCR
[2] = Nmb i.t. vs PBS, day 7 post-infection

Question: Which results are given for H2N-GNLWATGHFM-amide [Nmb]?
Answer: IL-5 expression in the lungs [1]: reduced; IL-13 expression in the lungs [1]: reduced; ILC2 responses (ILC2s in the BAL) [2]: reduced; eosinophilia (eosinophils in the BAL) [2]: reduced; infection-induced neutrophilia [2]: no effect; worm clearance (worm burdens) (Nmb i.t. vs control mice, day 7 post-infection): failed to clear worms as efficiently as control mice
